Measured values from PubChem BioAssay AID2060624 (Molecular Pharmacology Branch, DTP, NCI, 2025).

Test system: 217524-143-R1-J4-PDC spheroids with HUVEC/MSC, viability
Assay: Anticancer human tumor 217524-143-R1-J4-PDC patient-derived pancreatic carcinoma cell line growth inhibition [CLK]
Conditions: for IC50: curve of first compound; for viability, T/C: stronger effect = lower value
Method in brief: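 Patient-derived tumor cells grown as complex spheroids with HUVEC endothelial cells and mesenchymal stem cells, treated with drug combinations. Concentrations descend in half-log steps from near clinical Cmax, or from 10 microM if Cmax unknown.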

[1] = second compound 0.0316 µM, first compound 0.0316 µM
[2] = second compound 0.0316 µM, first compound 0.1 µM
[3] = second compound 0.0316 µM, first compound 0.316 µM
[4] = second compound 0.0316 µM, first compound 1 µM
[5] = second compound 0.0316 µM, first compound 3.16 µM
[6] = second compound 0.0316 µM, first compound 10 µM
[7] = second compound 0.1 µM, first compound 0.0316 µM
[8] = second compound 0.1 µM, first compound 0.1 µM
[9] = second compound 0.1 µM, first compound 0.316 µM
[10] = second compound 0.1 µM, first compound 1 µM
[11] = second compound 0.1 µM, first compound 3.16 µM
[12] = second compound 0.1 µM, first compound 10 µM
[13] = second compound 0.316 µM, first compound 0.0316 µM
[14] = second compound 0.316 µM, first compound 0.1 µM
[15] = second compound 0.316 µM, first compound 0.316 µM
[16] = second compound 0.316 µM, first compound 1 µM
[17] = second compound 0.316 µM, first compound 3.16 µM
[18] = second compound 0.316 µM, first compound 10 µM
[19] = second compound 1 µM, first compound 0.0316 µM
[20] = second compound 1 µM, first compound 0.1 µM
[21] = second compound 1 µM, first compound 0.316 µM
[22] = second compound 1 µM, first compound 1 µM
[23] = second compound 1 µM, first compound 3.16 µM
[24] = second compound 1 µM, first compound 10 µM
[25] = second compound 3.16 µM, first compound 0.0316 µM
[26] = second compound 3.16 µM, first compound 0.1 µM
[27] = second compound 3.16 µM, first compound 0.316 µM
[28] = second compound 3.16 µM, first compound 1 µM
[29] = second compound 3.16 µM, first compound 3.16 µM
[30] = second compound 3.16 µM, first compound 10 µM
[31] = second compound 10 µM, first compound 0.0316 µM
[32] = second compound 10 µM, first compound 0.1 µM
[33] = second compound 10 µM, first compound 0.316 µM
[34] = second compound 10 µM, first compound 1 µM
[35] = second compound 10 µM, first compound 3.16 µM
[36] = second compound 10 µM, first compound 10 µM
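Also: spheroids exposed to agents for seven days before reading.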
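For viability, T/C in this document: 100% = DMSO vehicle control viability.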

CC1(C)CCC(CN2CCN(c3ccc(C(=O)NS(=O)(=O)c4ccc(NCC5CCOCC5)c([N+](=O)[O-])c4)c(Oc4cnc5[nH]ccc5c4)c3)CC2)=C(c2ccc(Cl)cc2)C1 + CN1CCN(c2cc(C(=O)Nc3cc4cc(-c5cnn(C)c5)ccc4cn3)ccn2)CC1 gave an IC50 (second compound 0.0316 µM) of 5.02 µM, an IC50 (second compound 0.1 µM) of 3.82 µM and an IC50 (second compound 0.316 µM) of under 0.0316 µM. For the same molecule, the IC50 (second compound 1 µM) was under 0.0316 µM, the IC50 (second compound 3.16 µM) was under 0.0316 µM and the IC50 (second compound 10 µM) was under 0.0316 µM. It also gave a viability, T/C [1] of 83.2%, a viability, T/C [2] of 68.9% and a viability, T/C [3] of 89.4%. The viability, T/C [4] was 88.4%, the viability, T/C [5] was 77.1% and the viability, T/C [6] was 9.4%. The viability, T/C [7] was 55.5%, the viability, T/C [8] was 55% and the viability, T/C [9] was 55.1%. The viability, T/C [10] was 65.7%, the viability, T/C [11] was 60.2% and the viability, T/C [12] was 7.83%. For the same molecule, the viability, T/C [13] was 19.1%, the viability, T/C [14] was 20.4% and the viability, T/C [15] was 21.5%. It also gave a viability, T/C [16] of 22.8%, a viability, T/C [17] of 20.9% and a viability, T/C [18] of 6.29%. For the same molecule, the viability, T/C [19] was 2.02%, the viability, T/C [20] was 1.96% and the viability, T/C [21] was 1.65%. The viability, T/C [22] was 1.7%, the viability, T/C [23] was 1.3% and the viability, T/C [24] was 1.35%. It also gave a viability, T/C [25] of 0.59%, a viability, T/C [26] of 0.61% and a viability, T/C [27] of 0.76%. It also gave a viability, T/C [28] of 0.45%, a viability, T/C [29] of 0.49% and a viability, T/C [30] of 0.25%. It also gave a viability, T/C [31] of 0.16%, a viability, T/C [32] of 0.16% and a viability, T/C [33] of 0.19%. It also gave a viability, T/C [34] of 0.26%, a viability, T/C [35] of 0.24% and a viability, T/C [36] of 0.17%.

In the case of CC1COCCN1c1cc(C2(S(C)(=N)=O)CC2)nc(-c2ccnc3[nH]ccc23)n1 (stereo not drawn) + CN1CCN(c2cc(C(=O)Nc3cc4cc(-c5cnn(C)c5)ccc4cn3)ccn2)CC1, the IC50 (second compound 0.0316 µM) is reported as 1.43 µM, the IC50 (second compound 0.1 µM) is reported as 0.342 µM and the IC50 (second compound 0.316 µM) is reported as under 0.0316 µM. For the same molecule, the IC50 (second compound 1 µM) was under 0.0316 µM, the IC50 (second compound 3.16 µM) was under 0.0316 µM and the IC50 (second compound 10 µM) was under 0.0316 µM. It also gave a viability, T/C [1] of 93.1%, a viability, T/C [2] of 79.7% and a viability, T/C [3] of 63.9%. For the same molecule, the viability, T/C [4] was 66.3%, the viability, T/C [5] was 32.9% and the viability, T/C [6] was 18.6%. The viability, T/C [7] was 56.7%, the viability, T/C [8] was 67.3% and the viability, T/C [9] was 43.1%. The viability, T/C [10] was 42.3%, the viability, T/C [11] was 29.1% and the viability, T/C [12] was 16.4%. For the same molecule, the viability, T/C [13] was 22.1%, the viability, T/C [14] was 19.2% and the viability, T/C [15] was 17.1%. The viability, T/C [16] was 16.1%, the viability, T/C [17] was 12.3% and the viability, T/C [18] was 11.4%. The viability, T/C [19] was 1.72%, the viability, T/C [20] was 1.95% and the viability, T/C [21] was 2.1%. The viability, T/C [22] was 1.89%, the viability, T/C [23] was 1.87% and the viability, T/C [24] was 1.22%. It also gave a viability, T/C [25] of 0.77%, a viability, T/C [26] of 0.42% and a viability, T/C [27] of 0.98%. The viability, T/C [28] was 0.65%, the viability, T/C [29] was 0.84% and the viability, T/C [30] was 1.13%. For the same molecule, the viability, T/C [31] was 0.21%, the viability, T/C [32] was 0.17% and the viability, T/C [33] was 0.25%. The viability, T/C [34] was 0.29%, the viability, T/C [35] was 0.29% and the viability, T/C [36] was 0.25%.

In the case of NC(=O)C(=Cn1cnc(-c2cc(C(F)(F)F)cc(C(F)(F)F)c2)n1)c1cncnc1 + CN1CCN(c2cc(C(=O)Nc3cc4cc(-c5cnn(C)c5)ccc4cn3)ccn2)CC1, the IC50 (second compound 0.0316 µM) is reported as 0.0218 µM, the IC50 (second compound 0.1 µM) is reported as under 0.00949 µM and the IC50 (second compound 0.316 µM) is reported as under 0.00949 µM. For the same molecule, the IC50 (second compound 1 µM) was under 0.00949 µM, the IC50 (second compound 3.16 µM) was under 0.00949 µM and the IC50 (second compound 10 µM) was under 0.00949 µM. For the same molecule, the viability, T/C (second compound 0.0316 µM, first compound 0.00949 µM) was 80.7%, the viability, T/C (second compound 0.0316 µM, first compound 0.03 µM) was 39.1% and the viability, T/C (second compound 0.0316 µM, first compound 0.0949 µM) was 22.3%. It also gave a viability, T/C (second compound 0.0316 µM, first compound 0.3 µM) of 21.2%, a viability, T/C (second compound 0.0316 µM, first compound 0.949 µM) of 23.1% and a viability, T/C (second compound 0.0316 µM, first compound 3 µM) of 17.8%. The viability, T/C (second compound 0.1 µM, first compound 0.00949 µM) was 35.9%, the viability, T/C (second compound 0.1 µM, first compound 0.03 µM) was 23.7% and the viability, T/C (second compound 0.1 µM, first compound 0.0949 µM) was 14%. It also gave a viability, T/C (second compound 0.1 µM, first compound 0.3 µM) of 15.4%, a viability, T/C (second compound 0.1 µM, first compound 0.949 µM) of 14.6% and a viability, T/C (second compound 0.1 µM, first compound 3 µM) of 10.6%. The viability, T/C (second compound 0.316 µM, first compound 0.00949 µM) was 10.8%, the viability, T/C (second compound 0.316 µM, first compound 0.03 µM) was 8.91% and the viability, T/C (second compound 0.316 µM, first compound 0.0949 µM) was 4.48%. For the same molecule, the viability, T/C (second compound 0.316 µM, first compound 0.3 µM) was 4%, the viability, T/C (second compound 0.316 µM, first compound 0.949 µM) was 1.55% and the viability, T/C (second compound 0.316 µM, first compound 3 µM) was 0.81%. It also gave a viability, T/C (second compound 1 µM, first compound 0.00949 µM) of 0.79%, a viability, T/C (second compound 1 µM, first compound 0.03 µM) of 0.59% and a viability, T/C (second compound 1 µM, first compound 0.0949 µM) of 0.94%. For the same molecule, the viability, T/C (second compound 1 µM, first compound 0.3 µM) was 0.88%, the viability, T/C (second compound 1 µM, first compound 0.949 µM) was 0.76% and the viability, T/C (second compound 1 µM, first compound 3 µM) was 1.07%. For the same molecule, the viability, T/C (second compound 3.16 µM, first compound 0.00949 µM) was 0.72%, the viability, T/C (second compound 3.16 µM, first compound 0.03 µM) was 0.67% and the viability, T/C (second compound 3.16 µM, first compound 0.0949 µM) was 0.62%. For the same molecule, the viability, T/C (second compound 3.16 µM, first compound 0.3 µM) was 0.55%, the viability, T/C (second compound 3.16 µM, first compound 0.949 µM) was 0.69% and the viability, T/C (second compound 3.16 µM, first compound 3 µM) was 0.68%. For the same molecule, the viability, T/C (second compound 10 µM, first compound 0.00949 µM) was 0.2%, the viability, T/C (second compound 10 µM, first compound 0.03 µM) was 0.17% and the viability, T/C (second compound 10 µM, first compound 0.0949 µM) was 0.21%. It also gave a viability, T/C (second compound 10 µM, first compound 0.3 µM) of 0.22%, a viability, T/C (second compound 10 µM, first compound 0.949 µM) of 0.24% and a viability, T/C (second compound 10 µM, first compound 3 µM) of 0.2%.

In the case of Nc1ccccc1NC(=O)c1ccc(CNC(=O)OCc2cccnc2)cc1 + CN1CCN(c2cc(C(=O)Nc3cc4cc(-c5cnn(C)c5)ccc4cn3)ccn2)CC1, the IC50 (second compound 0.0316 µM) is reported as 3.75 µM, the IC50 (second compound 0.1 µM) is reported as 1.98 µM and the IC50 (second compound 0.316 µM) is reported as under 0.0316 µM. The IC50 (second compound 1 µM) was under 0.0316 µM, the IC50 (second compound 3.16 µM) was under 0.0316 µM and the IC50 (second compound 10 µM) was under 0.0316 µM. It also gave a viability, T/C [1] of 84.2%, a viability, T/C [2] of 84.9% and a viability, T/C [3] of 80.2%. It also gave a viability, T/C [4] of 66.5%, a viability, T/C [5] of 57.4% and a viability, T/C [6] of 23.1%. It also gave a viability, T/C [7] of 65.5%, a viability, T/C [8] of 61.1% and a viability, T/C [9] of 63.5%. The viability, T/C [10] was 60.8%, the viability, T/C [11] was 42.6% and the viability, T/C [12] was 19.9%. The viability, T/C [13] was 18.9%, the viability, T/C [14] was 20.2% and the viability, T/C [15] was 27.3%. For the same molecule, the viability, T/C [16] was 39.2%, the viability, T/C [17] was 28.9% and the viability, T/C [18] was 5.46%. It also gave a viability, T/C [19] of 1.9%, a viability, T/C [20] of 1.63% and a viability, T/C [21] of 1.82%. For the same molecule, the viability, T/C [22] was 1.83%, the viability, T/C [23] was 0.8% and the viability, T/C [24] was 0.38%. The viability, T/C [25] was 0.79%, the viability, T/C [26] was 1.03% and the viability, T/C [27] was 0.98%. For the same molecule, the viability, T/C [28] was 0.64%, the viability, T/C [29] was 0.44% and the viability, T/C [30] was 0.54%. For the same molecule, the viability, T/C [31] was 0.13%, the viability, T/C [32] was 0.21% and the viability, T/C [33] was 0.25%. For the same molecule, the viability, T/C [34] was 0.2%, the viability, T/C [35] was 0.23% and the viability, T/C [36] was 0.3%.
